We go through 31 compounds from patent US11179399B2, “6-heterocyclyl-4-morpholin-4-ylpyridine-2-one compounds useful for the treatment of cancer and diabetes” (Sprint Bioscience AB, priority 2016, dated 2021).

Structures are written as SMILES.

Chain of Vps34 enzyme (Q8NEB9 whole entry): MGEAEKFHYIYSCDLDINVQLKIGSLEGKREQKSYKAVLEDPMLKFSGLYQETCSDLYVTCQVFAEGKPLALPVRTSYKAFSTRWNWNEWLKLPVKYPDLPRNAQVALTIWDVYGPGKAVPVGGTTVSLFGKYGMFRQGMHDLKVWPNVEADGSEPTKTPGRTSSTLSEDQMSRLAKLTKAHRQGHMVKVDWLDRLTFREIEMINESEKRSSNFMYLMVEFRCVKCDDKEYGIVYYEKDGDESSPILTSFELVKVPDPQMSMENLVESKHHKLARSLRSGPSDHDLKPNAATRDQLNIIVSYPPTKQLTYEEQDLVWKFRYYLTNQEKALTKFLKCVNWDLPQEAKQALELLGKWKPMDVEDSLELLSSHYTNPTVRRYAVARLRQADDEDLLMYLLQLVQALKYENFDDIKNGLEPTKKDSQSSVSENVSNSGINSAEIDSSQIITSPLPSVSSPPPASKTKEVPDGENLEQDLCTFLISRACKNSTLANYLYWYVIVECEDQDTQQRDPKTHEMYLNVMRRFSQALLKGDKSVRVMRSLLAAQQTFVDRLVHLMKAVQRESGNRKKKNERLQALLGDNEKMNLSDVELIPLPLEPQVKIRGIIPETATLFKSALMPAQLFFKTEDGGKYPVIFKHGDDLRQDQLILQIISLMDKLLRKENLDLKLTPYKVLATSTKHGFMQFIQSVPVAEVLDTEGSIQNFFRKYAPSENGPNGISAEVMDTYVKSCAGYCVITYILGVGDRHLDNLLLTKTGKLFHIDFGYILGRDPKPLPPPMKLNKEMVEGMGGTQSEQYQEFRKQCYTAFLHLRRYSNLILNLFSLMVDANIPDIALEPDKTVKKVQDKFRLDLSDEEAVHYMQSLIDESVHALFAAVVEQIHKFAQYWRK

This experiment has as its target Vps34 enzyme (Homo sapiens (Human), UniProt Q8NEB9). Nature of the experiment: Vps34 biochemical assay (Adapta kinase assay). The conditions noted are these: 20 μM ATP and 200 μM PI:PS in substrate mix, 1 h at room temperature, read-out: Median IC50 uM Adapta. The method, then: Dilution series of compounds of the invention were prepared in DMSO at 100 times the final assay concentration (n1=n0/3 in 10 points). The compounds were further diluted to 4 times the assay concentration in assay buffer (Life technologies buffer Q, PV5125, diluted 5 times supplemented with 2 mM DTT and 2 mM MnCl2). 2.5 μl of the diluted compounds were added to a 384 well assay plate followed by 2.5 μl of 16.5 nM Vps34 enzyme (Life technologies, PV5126). Enzyme and compounds were pre-incubated at rt for 15 min. Then 5 μl of substrate mix containing 20 μM ATP (Life technologies, PV3227) and 200 μM PI:PS substrate (Life technologies, PV5122) in assay buffer was added to the wells containing compound and enzyme. Mixing was performed by pipetting several times. The reaction was incubated at room temperature for 1 h. Then 5 μl stop-detection mix, prepared as described in the Adapta kinase assay kit instructions (Life technologies, PV5099) containing Adapta Eu-anti-ADP antibody (2.3 nM), Alexa Fluor 647 ADP tracer (9 nM) and EDTA (30 mM) in TR-FRET buffer, was added to quench the reaction. Mixing was performed by pipetting several times. The assay plate was then incubated at room temperature for 30 min and read with Artemis micro plate reader. Percent inhibition of the compounds as compared to DMSO treated control samples was calculated. By the use of Dotmatics software compound concentration versus percent inhibition was fitted to generate IC50 values.
Broadly, the IC50 is the concentration that gives 50% inhibition. With `COC(C)(C)C1CCCN1c1cc(N2CCOC[C@H]2C)cc(=O)[nH]1` (mixture of isomers) [Example 11, (R) and (S) 6-[2-(1-methoxy-1-methyl-ethyl)pyrrolidin-1-yl]-4-[(3R)-3-methylmorpholin-4-yl]-1H-pyridin-2-one], the IC50 stood at 0.09 µM.

Turning to `C[C@@H]1COCCN1c1cc(N2CCCC2C2CCCCC2)[nH]c(=O)c1` (mixture of isomers) [Example 12, (R) and (S) 6-(2-cyclohexylpyrrolidin-1-yl)-4-[(3R)-3-methylmorpholin-4-yl]-1H-pyridin-2-one], the IC50 came out at 0.09 µM.

On to `C[C@@H]1COCCN1c1cc(N2CCCC2c2cc(F)ccc2F)[nH]c(=O)c1` (mixture of isomers) [Example 14, (R) and (S) 6-[2-(2,5-difluorophenyl)pyrrolidin-1-yl]-4-[(3R)-3-methylmorpholin-4-yl]-1H-pyridin-2-one], for which the IC50 was found to be 0.04 µM.

In the case of `C[C@@H]1COCCN1c1cc(N2CCCC2c2cccc(OC(F)(F)F)c2)[nH]c(=O)c1` (mixture of isomers) [Example 15, (R) and (S) 4-[(3R)-3-methylmorpholin-4-yl]-6-[2-[3-(trifluoromethoxy)phenyl]pyrrolidin-1-yl]-1H-pyridin-2-one], the IC50 amounted to 0.06 µM.

As to `C[C@@H]1COCCN1c1cc(N2CCCC2c2ccccc2)[nH]c(=O)c1` (mixture of isomers) [Example 18, (R) and (S) 4-[(3R)-3-methylmorpholin-4-yl]-6-(2-phenylpyrrolidin-1-yl)-1H-pyridin-2-one], the IC50 worked out at 0.06 µM.

Take `C[C@@H]1COCCN1c1cc(N2CCCC2c2cnn(C)c2)[nH]c(=O)c1` (mixture of isomers) [Example 19, (R) and (S) 4-[(3R)-3-methylmorpholin-4-yl]-6-[2-(1-methylpyrazol-4-yl)pyrrolidin-1-yl]-1H-pyridin-2-one]: the IC50 came out at 0.1 µM.

For the compound `Cc1cc(C2CCCN2c2cc(N3CCOC[C@H]3C)cc(=O)[nH]2)nn1C` (mixture of isomers) [Example 20, (R) and (S) 6-[2-(1,5-dimethylpyrazol-3-yl)pyrrolidin-1-yl]-4-[(3R)-3-methylmorpholin-4-yl]-1H-pyridin-2-one], the IC50 stood at 0.2 µM.

`CCn1ccc(C2CCCN2c2cc(N3CCOC[C@H]3C)cc(=O)[nH]2)n1` (mixture of isomers) [Example 21, (R) and (S) 6-[2-(1-ethylpyrazol-3-yl)pyrrolidin-1-yl]-4-[(3R)-3-methylmorpholin-4-yl]-1H-pyridin-2-one]: the IC50 came to 0.06 µM.

With `Cc1ccc(C2CCCN2c2cc(N3CCOC[C@H]3C)cc(=O)[nH]2)o1` (mixture of isomers) [Example 22, (R) and (S) 6-[2-(5-methyl-2-furyl)pyrrolidin-1-yl]-4-[(3R)-3-methylmorpholin-4-yl]-1H-pyridin-2-one], the IC50 was determined as 0.06 µM.

As for `C[C@@H]1COCCN1c1cc(N2CCCC2c2cccc(N(C)C)c2)[nH]c(=O)c1` (mixture of isomers) [Example 23, (R) and (S) 6-[2-[3-(dimethylamino)phenyl]pyrrolidin-1-yl]-4-[(3R)-3-methylmorpholin-4-yl]-1H-pyridin-2-one], the 50% inhibitory concentration (IC50) came to 0.03 µM.

Regarding `CC1COCCN1c1cc(N2CCOC[C@H]2C)cc(=O)[nH]1` (mixture of isomers) [Example 24, (R) and (S) 4-[(3R)-3-methylmorpholin-4-yl]-6-(3-methylmorpholin-4-yl)-1H-pyridin-2-one], the IC50 came out at 0.03 µM.

Consider `C[C@@H]1COCCN1c1cc(N2CCOCC2c2ccccc2)[nH]c(=O)c1` (mixture of isomers) [Example 26, (R) and (S) 4-[(3R)-3-methylmorpholin-4-yl]-6-(3-phenylmorpholin-4-yl)-1H-pyridin-2-one], for which the IC50 came to 0.06 µM.

On to `C[C@@H]1COCCN1c1cc(N2CCCC2c2ccccn2)[nH]c(=O)c1` (mixture of isomers) [Example 38, (R) and (S) 4-[(3R)-3-methylmorpholin-4-yl]-6-[2-(2-pyridyl)pyrrolidin-1-yl]-1H-pyridin-2-one], for which the IC50 came out at 0.05 µM.

Consider `C[C@@H]1COCCN1c1cc(N2CCCC2c2nccs2)[nH]c(=O)c1` (mixture of isomers) [Example 39, (R) and (S) 4-[(3R)-3-methylmorpholin-4-yl]-6-(2-thiazol-2-ylpyrrolidin-1-yl)-1H-pyridin-2-one], for which the IC50 came out at 0.05 µM.

In the case of `Cc1cc(C2CCCN2c2cc(N3CCOC[C@H]3C)cc(=O)[nH]2)no1` (mixture of isomers) [Example 40, (R) and (S) 6-[2-(5-methylisoxazol-3-yl)pyrrolidin-1-yl]-4-[(3R)-3-methylmorpholin-4-yl]-1H-pyridin-2-one], the IC50 is 0.1 µM.

For `COC(C)(C)C1CCCN1c1cc(N2CCOC[C@H]2C)cc(=O)[nH]1` (single isomer, unassigned) [Example 11_1], the IC50 turned out to be 0.2 µM.

As for `COC(C)(C)C1CCCN1c1cc(N2CCOC[C@H]2C)cc(=O)[nH]1` (single isomer, unassigned) [Example 11_2], the IC50 is 0.3 µM.

As for `C[C@@H]1COCCN1c1cc(N2CCCC2C2CCCCC2)[nH]c(=O)c1` (single isomer, unassigned) [Example 12_1], the IC50 is 0.2 µM.

Take `C[C@@H]1COCCN1c1cc(N2CCCC2C2CCCCC2)[nH]c(=O)c1` (single isomer, unassigned) [Example 12_2]: the IC50 is 0.2 µM.

As for `C[C@@H]1COCCN1c1cc(N2CCCC2c2cccc(F)c2)[nH]c(=O)c1` (single isomer, unassigned) [Example 13_1], the concentration for half-maximal inhibition (IC50) stood at 0.06 µM.

For the compound `C[C@@H]1COCCN1c1cc(N2CCCC2c2cccc(F)c2)[nH]c(=O)c1` (single isomer, unassigned) [Example 13_2], the IC50 came to 0.1 µM.

For the compound `C[C@@H]1COCCN1c1cc(N2CCCC2c2cc(F)ccc2F)[nH]c(=O)c1` (single isomer, unassigned) [Example 14_1], the IC50 worked out at 0.02 µM.

On to `C[C@@H]1COCCN1c1cc(N2CCCC2c2cc(F)ccc2F)[nH]c(=O)c1` (single isomer, unassigned) [Example 14_2], for which the IC50 is 0.05 µM.

Turning to `C[C@@H]1COCCN1c1cc(N2CCCC2c2cccc(OC(F)(F)F)c2)[nH]c(=O)c1` (single isomer, unassigned) [Example 15_1], the IC50 is 0.2 µM.

For `C[C@@H]1COCCN1c1cc(N2CCCC2c2cccc(OC(F)(F)F)c2)[nH]c(=O)c1` (single isomer, unassigned) [Example 15_2], the IC50 came out at 0.2 µM.

Regarding `C[C@@H]1COCCN1c1cc(N2CCCC2c2cccc(C(F)(F)F)c2)[nH]c(=O)c1` (single isomer, unassigned) [Example 16_1], the IC50 came to 0.03 µM.

Regarding `C[C@@H]1COCCN1c1cc(N2CCCC2c2cccc(C(F)(F)F)c2)[nH]c(=O)c1` (single isomer, unassigned) [Example 16_2], the IC50 was determined as 0.08 µM.

As to `COc1cccc(C2CCCN2c2cc(N3CCOC[C@H]3C)cc(=O)[nH]2)c1` (single isomer, unassigned) [Example 17_1], the IC50 came out at 0.02 µM.

With `C[C@@H]1COCCN1c1cc(N2CCCC2c2ccccc2)[nH]c(=O)c1` (single isomer, unassigned) [Example 18_1], the IC50 was found to be 0.07 µM.

Turning to `C[C@@H]1COCCN1c1cc(N2CCCC2c2cnn(C)c2)[nH]c(=O)c1` (single isomer, unassigned) [Example 19_1], the IC50 came out at 0.3 µM.

On to `C[C@@H]1COCCN1c1cc(N2CCCC2c2cnn(C)c2)[nH]c(=O)c1` (single isomer, unassigned) [Example 19_2], for which the IC50 was 0.3 µM.
